Where a name gives a salt, the structure may show the parent alone.
What was measured:
[1] = tested on: EGFR mutant tumors with T790M resistant clones; assay: In vivo model of emerging EGFR TKI resistance (T790M)
EML4-ALK [2] = assay: Time to client protein degradation by immunoblot, H3122 cells; format: cell-based, human; conditions: 1 uM IPI-504
Description: (§1) FIG. 7B is panel of immunoblot images showing the levels of ALK, phospho-ALK and cleaved-PARP in H3122 cells, HER2 in BT474 cells, and EGFR in H1650 cells at various time points after IPI-504 (1 uM) treatment. Proteins levels were monitored by immunoblotting.
(§2) Rearrangements at the ALK locus have been reported in about 5% of NSCLC patients, forming an oncogenic fusion of the N-terminus of EML4 with the C-terminal kinase domain of ALK (Soda, M. et al. (2007) Nature 448: 561-6). To determine whether the EML4-ALK fusion protein is a client protein of Hsp90, we incubated the EML4-ALK-expressing NSCLC cell line H3122 with increasing concentrations of IPI-504 and measured the abundance of total and phosphorylated ALK protein by ELISA (FIG. 7a). In this experiment, virtually all ALK protein is degraded at concentrations above 50 nM IPI-504. The degradation IC50 measured (4 nM) makes this the most sensitive Hsp90 client protein we have encountered. […] To further confirm that EML4-ALK is indeed a client of Hsp90, we performed immunoprecipitations with an antibody directed against Hsp90a, and detected a protein band at the predicted molecular weight ([…]) with an ALK antibody in Hsp90 immunoprecipitates from H3122 cells but not control cells (FIG. 7c, lane 1 and 3). […]

HER2 = assay: Time to client protein degradation by immunoblot, BT-474 cells; format: cell-based, human; conditions: 1 uM IPI-504
Description: as §1, §2

H3122 cells = assay: Growth inhibition, Cell Titer Glo, 72 h; format: cell-based; conditions: Homo sapiens, NCI-H3122, read-out: Wt H3122 (GI50, nM)
EML4-ALK [3] = assay: H3122 xenograft, PD time course by ALK specific ELISA; format: in vivo, nude mice; conditions: single injection of IPI-504 (100 mg/kg), tumors
Description: FIGS. 12A-12B depict a PD time course after IPI-504 treatment. After a single injection of 100 mg/kg IPI-504 tumors were collected at various times and ALK (FIG. 12A) and cleaved PARP (FIG. 12B) levels were monitored using ELISA and immunoblotting respectively.
Consistent with this, the responses to Hsp90 inhibitors in the clinic have so far mostly consisted of induction of stable disease. […] H3122 cells were injected into the flanks of nude mice and animals were treated with 75 mg/kg of IPI-504 twice weekly. […] To confirm degradation of EML4-ALK within these tumors, a separate arm was included in the study where tumors were harvested at different time points after a single injection of IPI-504 and the abundance of the fusion protein over time was monitored using an ALK specific ELISA (FIG. 12A). […] The depletion of EML4-ALK coincides with the appearance of PARP cleavage, an indication of caspase 3 activation and the induction of apoptosis (FIG. 12B).

[4] = tested on: tumors of smoker patients; assay: Clinical trial, response to IPI-504 by smoking status; format: in vivo, human
Description: This example describes the results from a clinical trial that assessed the efficacy of IPI-504, alone or in combination with docetaxel, in smoker patients.
FIG. 27 depicts a waterfall plot showing responses to IPI-504 according to smoking status. The y-axis of FIG. 27 represents % of tumor volume change from baseline. Each bar represents one patient.

AKT/mTOR pathway = assay: Immunoblot of BON-1 cells, IPI-504, rapamycin or both; format: cell-based; conditions: BON-1, 6 or 24 hours, 1 μM IPI-504, 100 nM rapamycin or both
Description: BON-1 cells were incubated for either 6 hours or 24 hours with 1 uM of IPI-504, 100 nM rapamycin (Sigma) or the combination of both. 50 ug of cell lysate was immunoblotted for pAKT, total AKT, pS6, total S6, pERK 1/2 (Cell Signaling), IGF-1Rb, Hsp70, and b-actin (Santa Cruz). Image analysis and band quantization were performed with the Bio-Rad Versa Doc system. The expression of GADPH was used as a control for protein loading.
Since the PI3K/Akt/mTOR pathway is activated in neuroendocrine tumors, GEP-NET cells were treated with IPI-504 and drugs which inhibit the AKT/mTOR pathway to look for combination effects. In one experiment, BON-1 cells were incubated for 6 or 24 hours with 1 μM IPI-504, 100 nM rapamycin or the combination of both. Fifty μg of cell lysate was immunoblotted for pAKT, total AKT, pS6, IGF-1Rβ, Hsp70, and β-actin.

## CO[C@H]1/C=C\C=C(/C)C(=O)NC2=CC(=O)C(N)=C(C[C@@H](C)C[C@H](OC)[C@H](O)[C@@H](C)/C=C(\C)[C@@H]1OC(N)=O)C2=O [IPI-493, 17-AG]
[1]; compared with gefitinib treatment alone
  tumor growth inhibition: 61%
[1]; day 45
  animals still on study: ~40%

## C=CCNc1c(O)cc2c(O)c1C[C@@H](C)C[C@H](OC)[C@H](O)[C@@H](C)/C=C(\C)[C@H](OC(N)=O)[C@@H](OC)/C=C\C=C(/C)C(=O)N2 [IPI-504, retaspimycin hydrochloride]
EML4-ALK [2]
  time to complete degradation of EML4-ALK: ≤ 3 h
HER2
  time for most of the HER2 to be degraded: about 24 h
H3122 cells
  GI50: 22 nM
EML4-ALK [3]
  time ALK fusion protein is depleted after a single injection: more than 48 h
[4]; out of 21 smoker patients
  patients showing a partial response (PR): 6 patients
[4]; smoker patients
  objective response rate (ORR): 29%
AKT/mTOR pathway
  effect on AKT and signalling downstream of mTOR: AKT degradation
